Measured values as given in US4695576A, “L-N-n-propylpipecolic acid-2,6-xylidide” (priority 1985, dated 1987).
Where two headings read alike, the source gives them in different places.

Experiments:
conscious rats = assay: Heart-toxicity in conscious rats (ECG); assay type: in vivo, Male Sprague Dawley rats; conditions: for potency to induce atrioventricular conduction disturbances: rat, in vivo
Protocol: Male Sprague Dawley rats weighing 290-360 grams were prepared with intravenous catheters under local anesthesia using prilocaine (Citanest*) one hour before experiments. Rapid intravenous bolus injections over 5.0 seconds were given to groups of 8 rats, with a single injection to each animal. […] The ECG was recorded on a Mingograf 34. Convulsions were recorded manually with an electronic marker on one channel of the Mingograf. Only "primary" arrhythmias occurring during the first 60 seconds have been analyzed to avoid confusion with late arrhythmias occurring secondary to respiratory arrest or cardiovascular collapse.

[1] = background statement; cited from earlier work
[2] = biological target: T1, guinea-pig papillary muscle sodium channels (Cavia porcellus, UniProt H0V4Z8); assay: Action on guinea-pig papillary muscle sodium channels (Vmax, recovery from block); assay type: cell-based; conditions: for recovery to 90% of drug-blocked channels: -90 mV; for potency on cardiac sodium channels: equimolar concentrations; for recovery from block: especially at hyperpolarized levels (-100--120 mV)
T1 construct: Vmax of action potential as measure of sodium current
Description: Depression of cardiac conduction appears to be one of the primary mechanisms underlying local anesthetic cardiotoxicity. Depression of conduction by local anesthetics in both nerve and cardiac tissue results from a block of sodium channels. Furthermore, the degree of sodium channel block by local anesthetics is dependent upon the state of the sodium channel. […] Consequently, a block of sodium channels develops during the upstroke and plateau of the action potential and dissipates during the diastolic interval between beats. Since the effect of a local anesthetic is both state and time dependent, changes in both heart rate and diastolic membrane potential may alter drug action substantially.
(§1) Guinea pig papillary tests were carried out according to the recommendation of the "Report of the Subcommittee on Cardiotoxicity of Local Anesthetics" (Leroy D. Vandam, M.D., chairman). Guinea pig papillary muscle excised from the right ventricle were mounted in a single sucrose gap apparatus (Arlock & Katzune, 1985). Solutions maintained at 37° C.±0.5° continuously perfused the gap compartments. The rear chamber contained isotonic potassium chloride solution. The drugs were added to a Tris-Tyrode solution passing the tip of the muscle. The Tris-Tyrode solution contained (mM): NaCl, 145; KCl, 4; CaCl2, 1.2; MgCl2, 1.05; glucose, 5.5 Tris maleate, 5. It was adjusted to pH 7.4 with trismaleate and HCl before use and gassed with 100% oxygen. Isotonic sucrose solution isolated the rear from the tip to enable current- and voltage-clamping.
The muscles were depolarized with long current pulses (1500 msec). These current steps can induce automaticity or DIA (depolarization induced automaticity). The steps were adjusted so the preparations were depolarized to from -50 to -30 mV since that is in that range that calcium current conductance is initiated.
The results represent the mean from representative experiments. In the absence of drug, Vmax (maximum upstroke velocity of the action potential) recovers from inactivation with an exponential time constant of less that 30 msec at -90 mV (Gettes and Reuter, 1974). […] The time constant of this recovery process is different for channels blocked by different drugs.

tissue [3] = conditions: in vivo, cited from earlier work
[4] = listed as 5; cited from earlier work
[5] = Force of contraction of guinea pig papillary muscle; assay type: cell-based; conditions: guinea pig, papillary muscle
Protocol: (§2) In order to initiate an investigation without the necessity to involve voltage-clamp of the calcium current, the preparations were subject to long depolarizing induced automaticity. If the cells are depolarized from about -50 to about -30 mV the automaticity is dependent on a transmembrane calcium current.
as §1, with “Guinea pig papillary muscle excised from the right ventricle were mounted in a single sucrose gap apparatus (Arlock & Katzune, 1985).” left out, “The Tris-Tyrode solution contained (mM): NaCl, 145; KCl, 4; CaCl2, 1.2; MgCl2, 1.05; glucose, 5.5 Tris maleate, 5.” left out
(§3) The force of contraction was measured with a strain gauge transducer before and after the addition of the test compounds to the medium. The percent reduction in maximum force of contraction from the control was calculated.

[6] = system: guinea pig papillary muscle; assay: as above; assay type: cell-based
Protocol: as §2
as §1, with “Guinea pig papillary muscle excised from the right ventricle were mounted in a single sucrose gap apparatus (Arlock & Katzune, 1985).” left out, “The Tris-Tyrode solution contained (mM): NaCl, 145; KCl, 4; CaCl2, 1.2; MgCl2, 1.05; glucose, 5.5 Tris maleate, 5.” left out
as §3

[7] = system: guinea pig papillary muscle; conditions: Block and Covino, 1981, Courtney, 1984, Kotelko et al.; cited from earlier work
tissue [8] = assay: Tissue toxicity limits (Trypan blue test, threshold of tissue irritancy); assay type: in vivo; conditions: Trypan blue test; approximate threshold values of tissue irritancy; racemate
Description: The toxicity of the homologous series of N-alkylpipecolic acid-2,6-xylidides increases step wise and quickly with the lengthening of the alkyl chain. This is manifest from Table 1 set forth below, which compares racemic mixtures of alkyl homologues having from 1 to 5 carbon atoms.
*Trypan blue test; Hoppe et al. (1950), 39, 147-151 "Use of Trypan Blue
and Rabbit Eye Tests For Irritation", J. Amer. Pharm. Assoc. (Scient.
Ed.), the values are approximate threshold values of tissue irritancy.

ulnar volar nerves = assay: Finger blockade, digital nerve blocks in man; assay type: in vivo; conditions: Concentration 0.25%
Protocol: ^2 Digital nerve blocks in man. The test solutions were injected to
block the ulnar volar nerves on the 2nd and 4th fingers of the same
volunteers who had participated in the intracutaneous wheal tests
described above. The tests were carried out in a double blind fashion in
rotating system, so that each solution was used with equal frequency on
each of the blocked fingers. A total of for injections 1.0 ml per
injection, was done in each subject. One week later the procedure was
repeated in the same subjects using the remaining test solutions. This
method has been described by Dhuner et al. (1972) (for citation see Table
2 footnote 1). To measure the efficacy and duration of the blocks, the
individual fingers were pricked rapidly 10 times with a needle algesimete
and the number of painful pricks noted. Each finger was tested every five
minutes until complete recovery. The time of complete anesthesia has been
called "duration of anesthesia".
*i.e. the time from injection to complete analgesia?
**i.e. the number of successful anesthesias of total number of
anesthesias performed (no anesthesia is possible if the ulnar volar nerve
are not contacted by the anesthetic).

in vivo = conditions: mouse, iv, 50% mortality of mice, racemate
[9] = system: peripheral nerve endings of the epidermis; assay: Intracutaneous wheals, infiltration anesthesia on forearms of man; assay type: in vivo; conditions: Conc. 0.25%; 12 healthy volunteers, pinprick
Description: By use of intracutaneous wheals it is possible to measure the analgesic effect of an anesthetic on the peripheral nerve endings of the epidermis.
This technique gives information about:
(1) The duration of anesthesia.
^1 Infiltration anesthesia on forearms of man. The test solutions wer
injected intracutaneously on the dorsum of the forearms of 12 healthy
volunteers, 20-25 years old. Three wheals were made on each arm in a
rotating system in a doublebind fashion. The local anesthetic effect was
tested using a pinprick technique. The "duration of anesthesia" was
defined as the time during which none out of six pinpricks into the wheal
was felt. The method has been described by Dhuner et al. (1972). […]

skin = assay: Skin temperature measurements within intracutaneous wheals; assay type: in vivo, man; conditions: Conc. 0.25%, HCl-salt, 10 minutes after injection
Protocol: The mean value of 6 wheals for each substance forms the basis for the values. The control values, however, represent the mean value obtained from 4 different sites measured outside the wheals 90 degrees apart and 2 centimeters from the wheal's center.
In the temperature measurements, an Oriel temperature apparatus* has been used. This is battery driven and is connected to a detector (diameter, 2.5 mm) and has an accuracy of ±0.1° C. The temperature of the skin is measured by pressing the detector against the skin with a pressure of 100 grams. It is retained against the skin until a constant temperature is obtained.
In Table 4, T1 is the measurement obtained at the center of the wheal, and T2 is the average of four measurements taken 90 degrees apart outside of the wheal and within 2 centimeters of the wheal's center.

pigs = assay: Intracoronary administration in anesthetized pigs; assay type: in vivo, pig
Protocol: Eight pigs weighing around 50 kg were anesthetized with a continuous infusion of pentobarbital at 600 mg/h. Ventilation was established via a tracheotomy with 30% oxygen in nitrogen and normoventilation by a Siemens-Elema Servoventilator 900B. The following catheters were inserted after cutdown: Left ventricular, aortic, pulmonary arterial, great cardiac venous, left anterior descending coronary, arterial and central venous. […] The corresponding doses for bupivaciane were 0.25, 0.5, 1, 2 and 4 mg and for LEA 0.33, 0.66, 1.33, 2.66 and 5.33 mg. The injection rate was adjusted according to the preinjection coronary blood flow. Each series of drug injections was preceded by a placebo infusion. Total hemodynamic and electrocardiographic recovery was allowed between doses and there was a one hour resting period between drugs.
Central pressures, left ventricular dP/dT and a complete chest lead ECG were recorded continuously. Cardiac output and great cardiac venous blood flow were determined before and directly after each dose of the local anesthetic agent.

CCN(CC)CC(=O)Nc1c(C)cccc1C [Lidocaine, 2-diethylamino-2',6'-acetoxylidide]
Atrioventricular block, rats responding/total (conscious rats; 14 umol/kg i.v. bolus): 0/8
Ventricular arrhythmias, rats responding/total (conscious rats; 14 umol/kg i.v. bolus): 0/8
Atrioventricular block, rats responding/total (conscious rats; 20 umol/kg i.v. bolus): 0/8
Ventricular arrhythmias, rats responding/total (conscious rats; 20 umol/kg i.v. bolus): 0/8
Atrioventricular block, rats responding/total (conscious rats; 28 umol/kg i.v. bolus): 3/8
Ventricular arrhythmias, rats responding/total (conscious rats; 28 umol/kg i.v. bolus): 0/8
Atrioventricular block, rats responding/total (conscious rats; 40 umol/kg i.v. bolus): 4/8
Ventricular arrhythmias, rats responding/total (conscious rats; 40 umol/kg i.v. bolus): 2/8
Atrioventricular block, rats responding/total (conscious rats; 56 umol/kg i.v. bolus): 8/8
Ventricular arrhythmias, rats responding/total (conscious rats; 56 umol/kg i.v. bolus): 1/8
potency to induce atrioventricular conduction disturbances (conscious rats): least potent
local anesthetic effect duration for epidural use [1]: too short for epidural use
block of channels; fast component not measurable ([2]; 10 uM): virtually all channels were blocked
recovery to 90% of drug-blocked channels [2]: 308 ms
potency on cardiac sodium channels [2]: lowest potency
recovery from block [2]: considerably faster

CCCCCN1CCCCC1C(=O)Nc1c(C)cccc1C (stereo not drawn) [5 R, N--n-pentylpipecolic acid-2,6-xylidide]
tissue irritation (tissue [3]): irritating
tissue irritation (tissue [3]; listed as 5): too irritating against tissue
solubility in water [4]: slightly soluble

CCCCN1CCCCC1C(=O)Nc1c(C)cccc1C (racemic) [4 R, N--n-butylpipecolic acid-2,6-xylidide]
inhibition at 5 µM [5]: 45.1%
inhibition at 10 µM [5]: 41.7%
effect on force of contraction/contractility [6]: pronounced depressant action
negative inotropic effect [7]: potent negative inotropic effect
Tissue toxicity limits in % (tissue [8]): 0.75%
Analgesia-duration, finger blockade (ulnar volar nerves): 388 ± 50 min
Frequency (successful anesthesias of total performed) (ulnar volar nerves): 15/20
Time of onset, finger blockade (ulnar volar nerves; time from injection to complete analgesia): 9 ± 2 min
potency to induce atrioventricular conduction disturbances (conscious rats): most potent
LD50 (in vivo): 7.8 mg/kg
Analgesia-duration, intracutaneous wheals [9]: 118 ± 15 min
Temperature Difference (T1 wheal vs T2 controls) (skin): -0.6 °C
T1 Intracutaneous Wheal temperature (skin; mean of 6 wheals): 31.5 °C
affinity for the activated and inactivated channels [2]: very high affinity
recovery to 90% of drug-blocked channels [2]: 3561 ms
potency on cardiac sodium channels [2]: highest
recovery from block [2]: very slow
death in ventricular fibrillation (pigs; 4 mg intracoronary, eight pigs): Two animals died in ventricular fibrillation
ventricular fibrillation (VF), time after injection (pigs; 4 mg intracoronary, listed as bupivacaine): ≤ 33 s
sudden cardiac collapse (pigs; intracoronary): occurred
